From ChEMBL document CHEMBL1133707, “Heteroarylmethoxyphenylalkoxyiminoalkylcarboxylic acids as leukotriene biosynthesis inhibitors” (J Med Chem, 2000)

Experiments:
Rattus norvegicus [1] = experiment: In vivo inhibition of ionophore induced rat pleurisy.; assay type: functional
Rattus norvegicus [2] = experiment: Percent inhibition was determined for in vivo ionophore induced rat pleurisy at a dose of 3 mg/kg; assay type: functional

| Compound | ED50 (Rattus norvegicus [1]) | I (Rattus norvegicus [2]) |
| --- | --- | --- |
| O=C(O)/C=N/OC(c1ccc(OCc2ccc3ccccc3n2)cc1)C1CCCCC1 (stereo not drawn) | 2.5 mg/kg |  |
| C/C(=N\OC(Cc1ccccc1)c1ccc(OCc2ccc3ccccc3n2)cc1)C(=O)O (stereo not drawn) |  | 36% |
| O=C(O)/C=N/OC(c1ccc(OCc2csc(-c3ccc(Cl)cc3)n2)cc1)C1CCCCC1 (stereo not drawn) |  | 30% |
| C/C(=N\OC(c1ccc(OCc2ccc3ccccc3n2)cc1)c1cccs1)C(=O)O (stereo not drawn) |  | 6% |
| CCCCC(CCCC)C(O/N=C(\C)C(=O)O)c1ccc(OCc2ccc3ccccc3n2)cc1 (stereo not drawn) |  | 40% |
| Cc1cc(C(O/N=C/C(=O)O)C2CCCCC2)ccc1OCc1ccc2ccccc2n1 (stereo not drawn) |  | 15% |
| C/C(=N\OC(c1cc2ccc(OCc3ccc4ccccc4n3)cc2s1)C1CCCCC1)C(=O)O (stereo not drawn) |  | 80% |
| O=C(O)[C@@H](c1ccc(OCc2ccc3ccccc3n2)cc1)C1CCCC1 [VELIFLAPON] | 4 mg/kg |  |
| C/C(CCC(=O)O)=N\OC(c1ccc(OCc2ccc3ccccc3n2)cc1)C1CCCCC1 (stereo not drawn) | 1 mg/kg |  |
| C/C(=N\OCC(c1ccc(OCc2ccc3ccccc3n2)cc1)C1CCCCC1)C(=O)O (stereo not drawn) |  | 33% |
| CC(C)c1ccc(-c2csc(COc3ccc(C(O/N=C/C(=O)O)C4CCCCC4)cc3)n2)cc1 (stereo not drawn) |  | 15% |
| O=C(O)c1ccc(/C=N/OC(c2ccc(OCc3ccc4ccccc4n3)cc2)C2CCCCC2)cc1 (stereo not drawn) |  | 41% |
| O=C(O)/C=N/OC(c1ccc(OCc2nc3ccccc3s2)cc1)C1CCCCC1 (stereo not drawn) | 3 mg/kg |  |
| C/C(=N\OC(c1ccc(OCc2ccc3ccccc3n2)c(C)c1)C1CCCCC1)C(=O)O (stereo not drawn) |  | 58% |
| O=C(O)C1CCC(=NOC(c2ccc(OCc3ccc4ccccc4n3)cc2)C2CCCCC2)CC1 (stereo not drawn) |  | 9% |
| O=C(O)/C=N/OC(c1ccc(OCc2nc(-c3ccccc3)cs2)cc1)C1CCCCC1 (stereo not drawn) |  | 0% |
| O=C(O)/C=N/OC(c1ccc2cc(OCc3ccc4ccccc4n3)ccc2c1)C1CCCCC1 (stereo not drawn) |  | 24% |
| O=C(O)/C(=N\OC(c1ccc(OCc2ccc3ccccc3n2)cc1)C1CCCCC1)c1cccs1 (stereo not drawn) |  | 60% |
| C/C(CCCC(=O)O)=N\OC(c1ccc(OCc2ccc3ccccc3n2)cc1)C1CCCCC1 (stereo not drawn) | 3 mg/kg |  |
| O=C(O)/C=N/OC(c1ccc(OCc2nc3ccccc3s2)cc1Cl)C1CCCCC1 (stereo not drawn) |  | 84% |

| Compound | ED50 (Rattus norvegicus [1]) | I (Rattus norvegicus [2]) |
| --- | --- | --- |
| O=C(O)/C(=N/OC(c1ccc(OCc2ccc3ccccc3n2)cc1)C1CCCCC1)c1ccccc1 (stereo not drawn) |  | 41% |
| O=C(O)/C=N/OC(c1ccc(OCc2ccc3cc(F)ccc3n2)cc1)C1CCCCC1 (stereo not drawn) |  | 39% |
| C/C(=N\OC(c1ccc(COc2ccc3ccccc3n2)cc1)C1CCCCC1)C(=O)O (stereo not drawn) |  | 0% |
| O=C(O)/C=N/OC(c1ccc(OCc2ccccn2)cc1)C1CCCCC1 (stereo not drawn) |  | 3% |
| O=C(O)CSC(CCCc1ccc(Cl)cc1)c1ccc(OCc2ccc3ccccc3n2)cc1 (stereo not drawn) | 1.6 mg/kg |  |
| CCCCC(O/N=C/C(=O)O)c1ccc(OCc2ccc3ccccc3n2)cc1 (stereo not drawn) |  | 0% |
| O=C(O)/C=N/OC(c1cc2cc(OCc3ccc4ccccc4n3)ccc2o1)C1CCCCC1 (stereo not drawn) |  | 31% |
| C/C(=N\OC(c1ccc(OCc2ccc3ccccc3n2)cc1)C1CCCC1)C(=O)O (stereo not drawn) |  | 61% |
| C/C(=N\OC(c1ccc(OCc2ccc3ccccc3n2)cc1)C1C2CC3CC(C2)CC1C3)C(=O)O (stereo not drawn) | 0.6 mg/kg |  |
| C/C(=N\OC(c1ccc(OCc2nc3cc(F)ccc3s2)cc1Cl)C1CCCCC1)C(=O)O (stereo not drawn) |  | 22% |
| Cc1nc(COc2ccc(C(O/N=C/C(=O)O)C3CCCCC3)cc2)cs1 (stereo not drawn) |  | 4% |
| C/C(=N\OC(c1ccc(OCc2nc(-c3ccccc3)cs2)cc1)C1CCCCC1)C(=O)O (stereo not drawn) |  | 15% |
| C/C(=N\OC(c1ccc(OCc2nc3ccccc3s2)cc1Cl)C1CCCCC1)C(=O)O (stereo not drawn) | 2.6 mg/kg |  |
| O=C(O)/C=N/OC(c1ccc(OCc2nc3cccnc3s2)cc1)C1CCCCC1 (stereo not drawn) |  | 47% |
| CCCCC(CCCC)C(O/N=C/C(=O)O)c1ccc(OCc2ccc3ccccc3n2)cc1 (stereo not drawn) |  | 7% |
| O=C(O)/C=N/OC(c1ccc(OCc2ccc3ccccc3n2)cc1)C1C2CC3CC(C2)CC1C3 (stereo not drawn) | 1.2 mg/kg |  |
| O=C(O)/C(CCc1ccccc1)=N/OC(c1ccc(OCc2ccc3ccccc3n2)cc1)C1CCCCC1 (stereo not drawn) |  | 34% |
| O=C(O)/C(Cc1ccc(O)cc1)=N/OC(c1ccc(OCc2ccc3ccccc3n2)cc1)C1CCCCC1 (stereo not drawn) |  | 39% |
| O=C(O)/C=N/OC(c1ccc(OCc2ccc3ccccc3n2)cc1)C1CCCC1 (stereo not drawn) |  | 27% |
| O=C(O)/C=N/OC(c1ccc(OCc2nc3ccccc3s2)cc1Br)C1CCCCC1 (stereo not drawn) | 1 mg/kg |  |

| Compound | ED50 (Rattus norvegicus [1]) | I (Rattus norvegicus [2]) |
| --- | --- | --- |
| CC(C)(C)Sc1c(CC(C)(C)C(=O)[O-])n(Cc2ccc(Cl)cc2)c2ccc(OCc3ccc4ccccc4n3)cc12.[Na+] [QUIFLAPON SODIUM] | 1.6 mg/kg |  |
| O=C(O)/C=N/OC(c1ccc(OCc2cnc3ccccc3n2)cc1)C1CCCCC1 (stereo not drawn) |  | 28% |
| C/C(=N\OC(c1ccc(OCc2ccc3cc(F)ccc3n2)cc1)C1CCCCC1)C(=O)O (stereo not drawn) | 0.4 mg/kg |  |
| C/C(=N\OC(CCCc1ccc(F)cc1)c1ccc(OCc2ccc3ccccc3n2)cc1)C(=O)O (stereo not drawn) | 2.6 mg/kg |  |
| C/C(=N\OC(CC(C)(C)c1ccccc1)c1ccc(OCc2ccc3ccccc3n2)cc1)C(=O)O (stereo not drawn) | 2 mg/kg |  |
| C/C(=N\OC(c1ccc(OCc2nc3ccccc3s2)cc1)C1CCCCC1)C(=O)O (stereo not drawn) |  | 85% |
| O=C(O)/C=N/OC(c1ccc(OCc2nc3cc(F)ccc3s2)cc1Cl)C1CCCCC1 (stereo not drawn) | 1.7 mg/kg |  |
| O=C(O)/C=N/OC(c1ccc(OCc2nc3ccccc3o2)cc1)C1CCCCC1 (stereo not drawn) |  | 14% |
| CC(c1cc2ccccc2s1)N(O)C(N)=O (stereo not drawn) [ZILEUTON] | 6 mg/kg |  |
| C/C(=N\OC(Cc1ccc(OCc2ccc3ccccc3n2)cc1)C1CCCCC1)C(=O)O (stereo not drawn) |  | 30% |
| O=C(O)/C(=N/OC(c1ccc(OCc2ccc3ccccc3n2)cc1)C1CCCCC1)c1cccs1 (stereo not drawn) |  | 29% |
| COc1cc(OCc2ccc3ccccc3n2)ccc1C(O/N=C/C(=O)O)C1CCCCC1 (stereo not drawn) |  | 41% |
| C/C(=N\OC(c1ccc(OCc2ccc3ccccc3n2)c(Cl)c1)C1CCCCC1)C(=O)O (stereo not drawn) | 1.2 mg/kg |  |
| O=C(O)/C=N/OC(c1ccc(OCc2nc3cc(F)ccc3s2)cc1)C1CCCCC1 (stereo not drawn) |  | 0% |
| C/C(CCC(=O)O)=N/OC(c1ccc(OCc2ccc3ccccc3n2)cc1)C1CCCCC1 (stereo not drawn) |  | 62% |
| CC(/C=C/C(=O)O)=N\OC(c1ccc(OCc2ccc3ccccc3n2)cc1)C1CCCCC1 (stereo not drawn) | 2 mg/kg |  |
| C/C(=N\OC(c1ccc(OCc2ccc3ccccc3n2)cc1)C1CCCCCC1)C(=O)O (stereo not drawn) | 0.7 mg/kg |  |
| C/C(CCCCCC(=O)O)=N\OC(c1ccc(OCc2ccc3ccccc3n2)cc1)C1CCCCC1 (stereo not drawn) |  | 5% |
